How the values were obtained:
primary human astroglia = assay: NO synthesis (nitrite, Griess reagent) in primary human astroglia; assay type: cell-based; conditions: primary human astroglia, level comparable to IL-1β
Method: Synthesis of NO was determined by assay of culture supernatants for nitrite, a stable reaction product of NO with molecular oxygen, using Griess reagent as described.
After 24 h of stimulation, the concentration of nitrite was measured in supernatants (FIG. 4A) by Griess reagent. […] Cells were treated with ASO/ScO for 40 h followed by stimulation with the combination of fibrillar Aβ and IL-Iβ as above. After 6 h, the expression of iNOS mRNA was analyzed by both semi-quantitative RT-PCR (C) and quantitative real-time PCR (FIG. 4D). The expression of TNF-a, IL-6 and IL-Iβ mRNAs were analyzed by semi-quantitative RT-PCR (FIG. 4E). Results are mean±SD of three different experiments. ^ap<0.001 vs control; ^bp<0.001 vs (Aβ+IL-Iβ).

N-SMase = N-SMase activity in vivo in the cortex after microinjection; set-up: species or system C57/BL6 mice
Method: (§1) Activities of SMase(s) were assayed as described by. Briefly, after treatment, the cells were washed with PBS, harvested in PBS, divided into two halves, and centrifuged. The fraction for N-SMase was resuspended in buffer A (100 mM Tris-HCl, pH 7.4, 0.1% Triton X-100, 1 mM EDTA, and protease inhibitors), and the cell suspension was sonicated and centrifuged at 500×g at 4° C. for 5 min. The supernatant was used as the enzyme source for N-SMase. The reaction mixture contained enzyme preparation in buffer A containing 5 nmol of [^14C] sphingomyelin, 5 nmol of phosphatidylserine, 5 mM dithiothreitol, and 5 mM MgC¾ in a final volume of 100 μl. Similarly, the fraction for A-SMase was resuspended in buffer B (100 mM sodium acetate, pH 5.0, 0.1% Triton X-100, and protease inhibitors). The cell suspension was sonicated and centrifuged. The supernatant was used as the source of A-SMase. The activity of A-SMase was measured in a 100-μl reaction mixture consisting of the enzyme preparation in buffer B and 5 nmol of [^14C] sphingomyelin. The enzyme reaction was initiated by the addition of 50 μl of substrate and stopped by the addition of 1.5 ml of chloroform:methanol (2:1, v/v) and 0.2 ml of water. After vortexing and phase separation, the aqueous phase was removed for counting.
(§2) Control mice received saline injection. At indicated time points, cortex was dissected out and divided into two halves—one half for measuring activities of N-SMase (FIG. 7B) and A-SMase (FIG. 7C) and the other for assaying ceramide (FIG. 7D). Control (saline—6 h) group served as 100%, and data from other groups were expressed as percentage of control. Results are mean+SD of five different mice (n=5). ^ap<0.05 vs saline—6 h.

A-SMase [1] = assay: A-SMase activity in vivo in the cortex after microinjection; set-up: species or system C57/BL6 mice
Method: as §1, §2

iNOS, GFAP and CD11b = assay: Immunofluorescence of iNOS, GFAP and CD11b in the cortex of Aβ-microinjected mice; assay type: in vivo, C57/BL6 mice; conditions: cortex, 6 h (and 24 h) of microinjection
Method: […], mice were perfused with 4% paraformaldehyde and their brains were processed for immunohistochemical studies. For double labeling of GFAP with iNOS, sections (6 μm) were incubated with polyclonal anti-GFAP (GFAP: 1000 dilution; Calbiochem) and anti-iNOS (iNOS: 1000 dilution; Calbiochem) for 24 h at 4° C. After three washes in PBST (15 min each), slides were further incubated with Cy5 and Cy2 (Jackson ImmunoResearch Laboratories, Inc.) secondary antibodies for 2 h at room temperature. For negative controls, a set of tissue sections was incubated under similar conditions without the primary antibodies. The samples were mounted and observed under a Bio-Rad MRC1024ES confocal laser scanning microscope.
After 6 h of Aβ microinjection, mice were perfused and double immunofluorescence for GFAP (green) and iNOS (red) (FIG. 8A) and CD 11b (green) and iNOS (red) (FIG. 8B) was performed.

primary human astrocytes = assay: GFAP and iNOS double-labeling of primary human astrocytes stimulated with Aβ peptides; assay type: cell-based; conditions: peptide stimulation for 24 h
Method: In FIG. 5A, primary astrocytes were stimulated with fibrillar Aβ1-42, oligomeric Aβ1-42 and reverse peptide Aβ42-1 for 24 h followed by double-labeling of GFAP and iNOS. In FIG. 5B, primary human astrocytes seeded in inserts were stimulated with a combination of I μM of oligomeric Aβ1-42 and 10 ng/ml of IL-Iβ in serum free media. […] After 6 h, neuronal apoptosis was monitored by TUNEL. In FIG. 5C, TUNEL-positive cells were counted manually in four different images of each of three coverslips by three individuals blinded to the experiment. Values obtained from the control group (1) served as 100%, and data obtained from other three groups i.e. the oligomeric Aβ-activated astrocytes (OAA) group (2), the ASO-OAA group (3), and the ScO-OAA group (4) was calculated as percent of control accordingly. Results are mean+S.D. of three different experiments. ^ap<0.001 vs control; ^bp<0.001 vs OAA.

ceramide = assay: Ceramide level in vivo in the cortex (DAG kinase assay); set-up: species or system C57/BL6 mice
Method: After treatment, lipids were extracted from cells as described previously. Ceramide content was quantified using diacylglycerol (DAG) kinase and [γ-^32P] ATP as described earlier. Briefly, dried lipids were solubilized in 20 μl of an octyl β-D-glucoside/cardiolipin solution (7.5% octyl β-D-glucoside, 5 mM cardiolipin in 1 mM diethylenetriaminepentaacetic acid) by sonication in a sonicatorbath. The reaction was then carried out in a final volume of 100 μl containing the 20-μl sample solution, 50 mM imidazole HQ, pH 6.6, 50 mM NaCl, 12.5 mM MgCl2, 1 mM EGTA, 2 mM dithiothreitol, 6.6 μg of DAG kinase, and 1 mM [γ-^32P] ATP (specific activity of 1-5×10^5 cpm/nmol) for 30 min at room temperature. The labeled ceramide-1-phosphate was resolved with a solvent system consisting of methyl acetate:n-propyl alcohol:chloroform:methanol:0.25% KQ in water:acetic acid (100:100:100:40:36:2). […] Quantification of ceramide-1-phosphate was carried out by autoradiography and densitometry scanning using a Fluor Chem 8800 imaging system (Alpha Innotech Corporation). Values are expressed either as arbitrary units (absorbance) or as percent of control, considering control as 100%. […]
Control mice received saline injection. […] Control (saline—6 h) group served as 100%, and data from other groups were expressed as percentage of control. […]

[2] = tested on: neurons (NeuN-positive cells); assay: TUNEL/NeuN neuronal apoptosis in vivo in the cortex of Aβ-microinjected mice
A-SMase [3] = assay: Western blot of A-SMase protein after antisense knockdown in primary human neurons; assay type: cell-based; conditions: 48 h with oligonucleotide
Method: Because these ASOs have become a very critical part of our study, the efficacy of N-SMase and A-SMase ASOs in inhibiting the protein expression of N-SMase and A-SMase was checked by western blot. […] Next, the effect of antisense knockdown of neuronal N-SMase and/or A-SMase on activated glia-induced neuronal apoptosis by TUNEL was investigated. […] As evidenced by a decrease In MTT metabolism, activated astroglia reduced neuronal viability (FIG. 2E).
Primary human neurons were incubated with antisense (ASO) and scrambled oligonucleotides (ScO) against N-SMase (A) and A-SMase (FIG. 2B). After 48 h, neurons were analyzed for protein expression of N-SMase and A-SMase. In FIG. 2C, primary human astrocytes seeded in inserts were stimulated by the combination of Aβ and IL-1β as described above. […] After 6 h of treatment with activated astrocytes, apoptotic events in neurons were detected by TUNEL. In FIG. 2D, TUNEL-positive cells were counted manually in four different images of each of three coverslips by three individuals blinded to the experiment. In FIG. 2E, after 18 h of stimulation, cell viability was examined by the metabolism of MTT and the release of LDH. […] Cell viability was checked by MTT (FIG. 2F) and LDH (FIG. 2G). Values obtained from the control group served as 100%, and data obtained in other groups were calculated as percent of control accordingly. […]

primary human neurons = assay: TUNEL apoptosis of neurons challenged by (fibrillar Aβ+IL-1β)-activated astrocytes, astrocyte-neuron trans-well; assay type: cell-based; conditions: neurons pretreated 40 h with 1 μM oligonucleotide; 6 h with (fibrillar Aβ+IL-1β)-activated astrocytes
Method: Primary human astrocytes were grown to confluency on inserts. After 24 h of stimulation by the combination of Aβ (1 μM) and IL-Iβ (10 ng/ml), inserts were washed thrice with HBSS and then placed onto the wells containing primary human neurons. Therefore, in this trans-well model, although neurons and astrocytes face each other, they are separable and the effect of soluble factors released from activated astrocytes on neurons can be studied allowing analysis of neuronal and glial populations separately.
Fragmented DNA was detected in situ by the terminal deoxynucleotidyltransferase-mediated binding of 3′-OH ends of DNA fragments generated in response to fibrillar Aβ1-42, using a commercially available kit (TdT FragEL™) from Calbiochem. […]
Primary human neurons were incubated with antisense (ASO) and scrambled oligonucleotides (ScO) against N-SMase (A) and A-SMase (FIG. 2B). After 48 h, neurons were analyzed for protein expression of N-SMase and A-SMase. […] After 6 h of treatment with activated astrocytes, apoptotic events in neurons were detected by TUNEL. In FIG. 2D, TUNEL-positive cells were counted manually in four different images of each of three coverslips by three individuals blinded to the experiment. […] Values obtained from the control group served as 100%, and data obtained in other groups were calculated as percent of control accordingly. […]

| Substance | production of NO by the stimulus alone (primary human astroglia) | activation of N-SMase in the cortex compared to saline microinjection (N-SMase; 1 μg peptide, over the time course) | increase in the activity of N-SMase in the cortex (N-SMase; 6 h of microinjection, 1 μg peptide) | activity of N-SMase in the cortex, in words (N-SMase; 12 h of microinjection) | increase in the activity of N-SMase in the cortex compared to saline (N-SMase; 12 h of microinjection, 1 μg peptide) | activity of N-SMase in the cortex, in words (N-SMase; 24 h of microinjection) | increase in the activity of N-SMase in vivo in the cortex compared to saline (N-SMase; antisense experiment, Aβ alone) | activity of A-SMase in the cortex (A-SMase [1]; 1 μg peptide microinjected, same setting as N-SMase) | increase in the activity of A-SMase after Aβ microinjection (A-SMase [1]; antisense experiment, Aβ alone) | glial expression of iNOS (GFAP-positive astrocytes, CD11b-positive microglia) and GFAP after Aβ microinjection (iNOS, GFAP and CD11b) | glial expression of iNOS (GFAP-positive astrocytes, CD11b-positive microglia) and GFAP after Aβ microinjection (iNOS, GFAP and CD11b; listed as Aβ) | astroglial iNOS protein and GFAP (primary human astrocytes) | increase in the ceramide level in the cortex (ceramide; after 6 h) | increase in the ceramide level in the cortex (ceramide; after 12 h) | apoptotic death of neurons in vivo in the cortex after Aβ microinjection ([2]; 24 h after microinjection) | apoptosis in neurons (NeuN-positive cells) after Aβ microinjection ([2]; within 6 h of microinjection) | level of A-SMase protein (A-SMase [3]) | protection of neurons from activated astrocyte-induced apoptosis (TUNEL) (primary human neurons) |
| --- | --- | --- | --- | --- | --- | --- | --- | --- | --- | --- | --- | --- | --- | --- | --- | --- | --- | --- |
| fibrillar Aβ1-42: human Aβ peptide (1-42), Bachem, incubated at 50 μM at 37° C. for 5 days | capable of inducing | marked increase | More than 3 fold | increased further | more than 300% | decreased | more than 4 fold | unable to increase | about 35% | induced | marked increase | induced the expression of iNOS protein and increased the level of GFAP | about 3 fold | about 4 fold | markedly induced | unable to induce any apoptosis | – | – |
| 5′- GACATCTCGGAGCCGGGGCA -3′ (DNA, all phosphorothioate, methylation of C not given here) [ASO against A-SMase, ID; NO.: 14] | – | – | – | – | – | – | – | – | – | – | – | – | – | – | – | – | suppressed | failed to rescue neurons |
